We go through 28 molecules from patent US6737425B1, “N,N-substituted cyclic amine derivatives” (Eisai Co., Ltd., priority 1998, dated 2004).

For orientation: pIC50 means −log10 of the IC50, conventionally taken in molar units.

Assay [1] concerns voltage-dependent calcium channels (cerebral cortex synaptosome). Nature of the assay: Measurement of voltage-dependent calcium channel activity by the use of a fluorescent pigment (fura 2). Type of assay: cell-based. The following applies: rat cerebral cortex synaptosome, fura 2, KCl stimulation, compound incubated 10 minutes. The protocol:
Measurement of Voltage-dependent Calcium Channel Activity by the use of a Fluorescent Pigment (fura 2)
Cerebral cortexes were removed from cut rat brains and disrupted roughly with scissors. These were introduced into a homogenizer, homogenized in 0.3 M saccharose and centrifuged at 4° C. (1,500 g×10 min). The resulting supernatant was further centrifuged at 4° C. (10,000 g×20 min). The resulting precipitates were suspended in 0.3 M saccharose. The suspension was layered on 0.8 M saccharose and centrifuged (10,000 g×30 min.).
4 μM fura 2/AM (Dojin Ltd.) was suspended in solution A to prepare a loading solution. To the synaptosome solution prepared in the method described above was added an equal volume of the loading solution, and the mixture was incubated for 40 minutes at room temperature.
As comparative and control compound, verapamil hydrochloride was used.

Assay [2] relates to glutamic acid release from rat cerebral cortex slices. The assay is described as follows: Inhibitory activity on glutamic acid release (cerebral cortex slices, high-conc. KCl). Type of assay: cell-based. The following applies: glutamic acid release induced with 50 mM KCl, HPLC. How it is done: Inhibitory Activity on Glutamic Acid Release
Cerebral cortexes were isolated from SD strain male rats (8-week-old) and used to prepare 300 μm×300 μm slices by use of a slice chopper. The prepared slices were incubated at 37° C. for 30 minutes in solution C (120 mM NaCl, 4 mM KCl, 10 mM MgSO4, 16 mM NaHCO3, 10 mM glucose, 1 mM NaH2PO4, 10 mM HEPES-NaOH pH 7.4) in the presence of 95% O2/5% CO2. Thereafter, solution C was exchanged with fresh one, followed by further incubation for 30 minutes.
The cerebral cortex slices were incubated in a 24-wells plate for cell culture according to a multi-well method (Brain Res., 402, 255-263, 1987), and the release of glutamic acid was induced with 50 mM KCl. Solution D (120 mM NaCl, 4 mM KCl, 1.2 mM CaCl2, 1 mM MgSO4, 16 mM NaHCO3, 10 mM glucose, 1 mM NaH2PO4, 10 mM HEPES-NaOH pH 7.4) was aerated with 95% O2/5% CO2 and kept at 37° C. and used in this experiment. 50 mM KCl containing the same total amount of K^+ and Na^+ was prepared. Slices corresponding to 1 to 2 mg protein were placed on an upper cup provided with a mesh at the bottom, and 1.3 ml solution C or 50 mM KCl solution was introduced into a lower well, and the upper cup was transferred to a new well. 20 minutes before and 5 minutes after reaction was intiated, the test compound was added to solution D or 50 mM KCl.
Glutamic acid was quantified by HPLC using fluorescent etor (Ex. 330 nm Em. […]). The eluting solvent used was prepared by diluting 150 ml sodium citrate buffer for automatic amino acid analysis (Wako Pure Chemical Industries) 10-fold with distilled water, then adding MgCl2 thereto at the final concentration of 50 mM, and further diluting it twice with acetonitrile. The flow rate was 2.0 ml/min. The column used was Asahipak (ES-502N Denko, K. K.). The glutamic acid was converted into a derivative by addition, to 50 μl sample, of 50 μl deriving agent (10 mg o-phthalaldehyde/500 μl MeOH, 10 μl b-mercaptopropionic acid, 0.15 M sodium borate buffer pH 9.5, 100 μl) followed by stirring (Neuroscience Lett., 96, 202-206, 1989).

pIC50: −log10 of the molar value. Counter-ions that a name gives are not always drawn.

As for `CC(C)C(C#N)(CCCN1CCN(CCOc2ccc(F)cc2)CC1)c1ccccc1` (single isomer, unassigned; (+)) [Example 76, (+)-1-[(4-Cyano-5-methyl-4-phenyl)hexyl]-4-[2-(4-fluorophenoxyl)ethyl]piperazine Hydrochloride], the results for the pIC50 in assay [1] (Hydrochloride) and in assay [2] (Hydrochloride) were 5.24 and 5.41, respectively.

For the molecule `Cc1ccc(C(C#N)(CCCN2CCN(CCOc3ccc(F)cc3)CC2)C(C)C)cc1` (stereo not shown) [Example 9, 1-[4-Cyano-5-methyl-4-(4-methylphenyl)hexyl]-4-[2-(4-fluorophenoxy)ethyl]piperazine], the pIC50 is 5.46 in assay [1] and 5.62 in assay [2] (Rattus norvegicus).

As for `CC(C)C(C#N)(CCCN1CCN(CCOc2ccc(F)cc2)CC1)c1ccccc1` (single isomer, unassigned; (-)) [Example 75, hydrochloride], the pIC50 in assay [1] (Hydrochloride) is 5.35; in assay [2] (Rattus norvegicus) it was 5.54.

In the case of `CC(C)C(C#N)(CCCN1CCN(CCN(C)c2ccc(F)cc2)CC1)c1ccccc1` (stereo not shown) [Example 52, 1-[(4-Cyano-5-methyl-4-phenyl)hexyl]-4-{2-[N-(4-fluorophenyl)-N-methylamino]ethyl}piperazine], the values for the pIC50 in assay [1] and in assay [2] (Rattus norvegicus) were 5.42 and 5.54, respectively.

As for `CC(C)C(C#N)(CCCN1CCN(CCOc2ccc(F)cc2)CC1)c1ccccc1F` (stereo not shown) [Example 22, 1-{[4-Cyano-5-methyl-4-(2-fluorophenyl)hexyl]}-4-[2-(4-fluorophenoxy)ethyl]piperazine], the values for the pIC50 in assay [1] and in assay [2] (Rattus norvegicus) were 5.27 and 5.39, respectively.

`CC(C)C(C#N)(CCCN1CCN(CCOc2ccc(F)cc2)CC1)c1ccc(Cl)cc1` (stereo not shown) [Example 10, 1-[4-Cyano-5-methyl-4-(4-chlorophenyl)hexyl]-4-[2-(4-fluorophenoxy)ethyl]piperazine]: the pIC50 in assay [1] is 5.49; in assay [2] (Rattus norvegicus), 5.70.

Regarding `N#CC(CCCN1CCN(CCOc2ccc(F)cc2)CC1)(c1ccccc1)C1CCCCC1` (single isomer, unassigned; (-)) [Example 79, (−)-1-[(4-Cyano-4-cyclohexyl-4-phenyl)butyl]-4-[2-(4-fluorophenoxyl)ethyl]piperazine Hydrochloride], the results for the pIC50 in assay [1] (Hydrochloride) and in assay [2] (Rattus norvegicus) were 5.48 and 5.23, respectively.

As to `CC(C)C(C#N)(CCCN1CCN(CCOc2ccc(Cl)cc2)CC1)c1ccccc1` (stereo not shown) [Example 36, 1-[(4-Cyano-5-methyl-4-phenyl)hexyl]-4-[2-(4-chlorophenoxy)ethyl]piperazine], the pIC50 was 5.47 in assay [1] and 5.38 in assay [2] (Rattus norvegicus).

Turning to `CC(C)C(C#N)(CCCN1CCN(CCOc2ccc(F)cc2)CC1)c1ccc(F)cc1` (stereo not shown) [Example 24, 1-{[4-Cyano-5-methyl-4-(4-fluorophenyl)hexyl]}-4-[2-(4-fluorophenoxy)ethyl]piperazine], the values for the pIC50 in assay [1] and in assay [2] (Rattus norvegicus) were 5.41 and 5.62, respectively.

As to `CC(C)C(C#N)(CCC(=O)N1CCN(CCOc2ccc(F)cc2)CC1)c1ccccc1` (stereo not shown) [Example 122, 1-[(4-Cyano-5-methyl-4-phenyl)hexanoyl]-4-[2-(4-fluorophenoxy)ethyl]piperazine], in assay [1], the pIC50 is 4.92.

`CCCC(CCC(C#N)(c1ccccc1)C(C)C)N1CCN(CCOc2ccc(F)cc2)CC1` (stereo not shown) [Example 98, 1-{[4-(7-Cyano-8-methyl-7-phenyl)nonyl]}-4-[2-(4-fluorophenoxy)ethyl]piperazine]: in assay [1], the pIC50 was less than 4.80.

Turning to `CC(C)C(C#N)(CCCN1CCN(CCNc2ccc(F)cc2)CC1)c1ccccc1` (stereo not shown) [Example 51, 1-[(4-Cyano-5-methyl-4-phenyl)hexyl]-4-[2-(4-fluorophenylamino)ethyl]piperazine], the pIC50 in assay [1] was 5.12.

Consider `CC(C)C(C#N)(CCCN1CCN(CCOc2ccc(F)cc2)CC1)c1ccc(C#N)cc1` (stereo not shown) [Example 15, 1-[4-Cyano-5-methyl-4-(4-cyanonphenyl)hexyl]-4-[2-(4-fluorophenoxy)ethyl]piperazine], for which the pIC50 in assay [1] was 5.01.

In the case of `CC(C)C(C#N)(CCCN1CCN(CCOc2ccc(C#N)cc2)CC1)c1ccccc1` (stereo not shown) [Example 47, 1-[(4-Cyano-5-methyl-4-phenyl)hexyl]-4-[2-(4-cyanophenoxy)ethyl]piperazine], the pIC50 in assay [1] is 4.89.

Regarding `COc1ccc(C(C#N)(CCCN2CCN(CCOc3ccc(F)cc3)CC2)C(C)C)cc1` (stereo not shown) [Example 11, 1-[4-Cyano-5-methyl-4-(4-methoxyphenyl)hexyl]-4-[2-(4-fluorophenoxy)ethyl]piperazine], the pIC50 was 5.32 in assay [1] and 5.42 in assay [2] (Rattus norvegicus).

Take `COc1cccc(OCCN2CCN(CCCC(C#N)(c3ccccc3)C(C)C)CC2)c1OC` (stereo not shown) [Example 40, 1-[(4-Cyano-5-methyl-4-phenyl)hexyl]-4-[2-(2,3-dimethoxyphenoxy)ethyl]piperazine]: in assay [1], the pIC50 is 5.00.

For the molecule `CC(C)C(C#N)(CCCN1CCN(CCS(=O)(=O)N(C)c2ccc(F)cc2)CC1)c1ccccc1` (stereo not shown) [Example 68, 1-[(4-Cyano-5-methyl-4-phenyl)hexyl]-4-{2-[N-(4-fluorophenyl)-N-methylsulfamoyl]ethyl}piperazine], the pIC50 in assay [1] is 5.06.

`CC(C)C(C#N)(CCCN1CCN(CCOc2ccc(Br)cc2)CC1)c1ccccc1` (stereo not shown) [Example 108, 1-[(4-Cyano-5-methyl-4-phenyl)hexyl]-4-[2-(4-bromophenoxy)ethyl]piperazine]: in assay [1], the negative logarithm of the IC50 (pIC50) is 5.48.

Take `CC(C)C(C#N)(CCCN1CCN(CCSc2ccc(F)cc2)CC1)c1ccccc1` (stereo not shown) [Example 49, 1-[(4-Cyano-5-methyl-4-phenyl)hexyl]-4-[2-(4-fluorophenylthio)ethyl]piperazine]: the pIC50 in assay [1] was 5.32.

In the case of `CC(=O)N(CCN1CCN(CCCC(C#N)(c2ccccc2)C(C)C)CC1)Cc1ccccc1` (stereo not shown) [Example 56, 1-[(4-Cyano-5-methyl-4-phenyl)hexyl]-4-[2-(N-acetyl-N-benzylamino)ethyl]piperazine], in assay [1], the negative-log IC50 (pIC50) is 4.80.

`CC(C)C(C#N)(CCCN1CCN(CCOc2ccccc2-c2cccnc2)CC1)c1ccccc1` (stereo not shown) [Example 113, 1-[(4-Cyano-5-methyl-4-phenyl)hexyl]-4-{2-[2-(3-pyridyl)phenoxy]ethyl}piperazine]: in assay [1], the pIC50 was 5.35.

As to `CC(C)c1cccc(N(C)CCN2CCN(CCCC(C#N)(c3ccccc3)C(C)C)CC2)c1` (stereo not shown) [Example 92, 1-[(4-Cyano-5-methyl-4-phenyl)hexyl]-4-{2-[N-methyl(3-Isopropylanilino)ethyl]}piperazine], in assay [1], the pIC50 is 5.74.

In the case of `CC(C)C(C#N)(CCN1CCN(CCOc2ccc(F)cc2)CC1)c1ccccc1` (stereo not shown) [Example 25, 1-[(3-Cyano-4-methyl-3-phenyl)pentyl]-4-[2-(4-fluourophenoxy)ethyl]piperazine], in assay [1], the pIC50 was 5.01.

As for `CC(C)C(C#N)(CCCN1CCN(CCOc2ccc(F)cc2)CC1)c1cccc(F)c1` (stereo not shown) [Example 23, 1-[{4-Cyano-5-methyl-4-(3-flourophenyl)hexyl]}-4-[2-(4-fluorophenoxy)ethyl]piperazine], the pIC50 in assay [1] is 5.37; in assay [2] (Rattus norvegicus), 5.60.

Turning to `CC(C)C(C#N)(CCCN1CCN(CCOC(=O)Sc2ccc(F)cc2)CC1)c1ccccc1` (stereo not shown) [Example 70, 1-[(4-Cyano-5-methyl-4-phenyl)hexyl]-4-{2-[(4-fluorophenylthio)carbonyloxyl]ethyl}piperazine], the pIC50 in assay [1] was 5.42.

In the case of `CC(C)C(C#N)(CCCN1CCN(CCOc2ccc(F)cc2)CC1)c1cccs1` (stereo not shown) [Example 20, 1-{[4-Cyano-5-methyl-4-(2-thienyl)hexyl]}-4-[2-(4-fluorophenoxy)ethyl]piperazine], the pIC50 in assay [1] was 5.26; in assay [2] (Rattus norvegicus) it was 5.72.

Regarding `N#CC(F)(CCCN1CCN(CCOc2ccc(F)cc2)CC1)c1ccccc1` (stereo not shown) [Example 85, 1-[(4-Cyano-4-fluoro-4-phenyl)butyl]-4-[2-(4-fluorophenoxy)ethyl]piperazine], in assay [1], the negative logarithm of the IC50 (pIC50) is 4.80.

As to `CC(C)C(C#N)(CCN1CCCN(CCOc2ccc(F)cc2)CC1)c1ccccc1` (stereo not shown) [Example 4, 1-[(3-Cyano-4-methyl-3-phenyl)pentyl]-4-[2-(4-fluorophenoxy)ethyl]homopiperazine], in assay [1], the pIC50 was 5.24.
